Laboratory results: article PMC6934184, “Selective DNA-PKcs inhibition extends the therapeutic index of localized radiotherapy and chemotherapy” (The Journal of Clinical Investigation, 2019)

Target: T1, CDK2/cyclin O (Homo sapiens, UniProt P24941)
T1 construct: purchased Thermo Fisher Scientific (Life Technologies) SelectScreen
Assay: SelectScreen LanthaScreen
Format: binding
Details: 1 µM
Procedure, shortened: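 SelectScreen broad panel; activity (Z'LYTE, Adapta) plus binding formats. ATP: Km app for CSF1R Z'LYTE; 10 for CAMK1 Adapta. Readout = % per kinase.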

CN(C(=O)CN1CCOCC1)c1ccc2sc3c(-c4cccc5c(=O)cc(N6CC7CCC(C6)O7)oc45)cccc3c2c1 [NU5455]
% displacement: 0.9%
